Results reported in the Deep4Chem optical property database.

Experiment: solvent given as SMILES

COc1cc(OC)cc(C2=[O+][B-](F)(F)OC(c3ccccc3)=C2)c1
emission maximum (in CC#N): 602.29 nm | emission maximum (in CC(C)=O): 590.78 nm | emission maximum (in CCCCCC): 446.17 nm | emission maximum (in Cc1ccccc1): 505.51 nm | emission maximum (in ClCCl): 554 nm

C[Si](C)(C)[Si](C)(C)c1cccc2cc3ccccc3cc12
emission maximum (in C1CCCCC1): 410 nm | emission maximum (in CC#N): 411 nm

Cc1ccc(/C=N/c2cc(C(C)C)c(O)cc2C)cc1
emission maximum (in C1CCCCC1): 400 nm | emission maximum (in C1CCOC1): 410 nm | emission maximum (in C1COCCO1): 408 nm | emission maximum (in CC#N): 415 nm | emission maximum (in CC(C)(C)O): 412 nm | emission maximum (in CC(C)O): 416 nm | emission maximum (in CCCCCC): 402 nm | emission maximum (in CCCCO): 417 nm | emission maximum (in CCO): 417 nm | emission maximum (in CCOC(C)=O): 409 nm | emission maximum (in CN(C)C=O): 414 nm | emission maximum (in CO): 422 nm | emission maximum (in CS(C)=O): 417 nm | emission maximum (in ClC(Cl)Cl): 415 nm | emission maximum (in ClCCl): 415 nm | emission maximum (in O): 441 nm | emission maximum (in OCCO): 425 nm

CC1(C)C(/C=C/C=C/C=C/C=C2/N(CCCCS(=O)(=O)[O-])c3ccc4ccccc4c3C2(C)C)=[N+](CCCCS(=O)(=O)[O-])c2ccc3ccccc3c21
emission maximum (in CO): 817 nm

COC(=O)c1[nH]c(-c2ccccc2)c2nnc3ccsc3c12
emission maximum (in ClCCl): 478 nm

COc1ccc(-c2ccc(-c3ccccc3)cc2)cc1
emission maximum (in C1CCCCC1): 353 nm

CC(C)(C)OC(=O)N1CCN(c2ccc3c(-c4ccc(I)cc4)c4ccc(=[N+]5CCN(C(=O)OC(C)(C)C)CC5)cc-4oc3c2)CC1
emission maximum (in ClCCl): 585 nm

CCCN(c1ccccc1)c1ccc2c(c1)C(CC)(CC)c1cc(/C=C/c3ccc(/C=C(\C#N)C(=O)O)s3)ccc1-2
emission maximum (in C1CCOC1): 572 nm | emission maximum (in C1COCCO1): 617 nm | emission maximum (in CC#N): 531 nm | emission maximum (in CC(C)=O): 575 nm | emission maximum (in CCOC(C)=O): 552 nm | emission maximum (in CN(C)C=O): 593 nm | emission maximum (in CS(C)=O): 514 nm | emission maximum (in ClCCl): 600 nm

C(=C\c1ncnc2ccccc12)/c1ccc(N(c2ccccc2)c2ccccc2)cc1
emission maximum (in C1CCCCC1): 463 nm | emission maximum (in C1CCOC1): 540 nm | emission maximum (in CC#N): 598 nm | emission maximum (in CS(C)=O): 600 nm | emission maximum (in ClCCl): 571 nm

C(=C\c1ccc(-c2nnc(-c3ccccc3)o2)cc1)/c1ccc(-c2nnc(-c3ccccc3)o2)cc1
emission maximum (in CN(C)C=O): 415 nm

CC1=[N+]2C(=C(c3ccc(C=O)cc3)c3ccc(C)n3[B-]2(F)F)C=C1c1cc2n(c1)[B-](F)(F)[N+]1=CC=CC1=C2c1c(C)cc(C)cc1C
emission maximum (in C1CCCCC1): 657 nm | emission maximum (in CCOC(C)=O): 669 nm

C[N+]1=C(/C=C/C2=C3Oc4c(cc5c6c4CCCN6CCC5)C(c4ccccc4C(=O)O)=C3CCC2)C(C)(C)c2c1ccc1ccccc21
emission maximum (in CC#N): 780 nm | emission maximum (in CCO): 763 nm | emission maximum (in CO): 768 nm | emission maximum (in ClC(Cl)Cl): 775 nm

O=C1CC(c2ccc(Cl)cc2)c2c(c3ccccc3c3nc4ccccc4nc23)O1 (configuration not stated)
emission maximum (in ClC(Cl)Cl): 434 nm

CC(=O)c1cc2c(cc1F)NC(C)(C)CC2=O
emission maximum (in CC#N): 417 nm | emission maximum (in CCO): 457 nm

C1=[N+](c2ccccc2)[B-](c2ccccc2)(c2ccccc2)Oc2c1ccc1c3c(ccc21)C=[N+](c1ccccc1)[B-](c1ccccc1)(c1ccccc1)O3
emission maximum (in Cc1ccccc1): 602 nm | emission maximum (in ClCCl): 594 nm

O=C1O/C(=C\c2cccs2)c2ccccc21
emission maximum (in CC#N): 438 nm

COc1ccc(N2c3sc4ccccc4c3Sc3sc4ccccc4c32)cc1
emission maximum (in ClCCl): 562 nm

CC(C)(C)c1ccc2c3c(c4ccc(C(C)(C)C)cc4c2c1)=[N+]1C(=C(c2ccccc2)c2cc4c5ccc(C(C)(C)C)cc5c5cc(C(C)(C)C)ccc5c4n2[B-]1(F)F)C=3
emission maximum (in C1CCCCC1): 709 nm | emission maximum (in C1CCOC1): 713 nm | emission maximum (in CC#N): 712 nm | emission maximum (in Cc1ccccc1): 713 nm | emission maximum (in ClCCl): 716 nm

CC[n+]1c(C=C2C(=O)C(C=C3N(C)c4ccc(Cl)cc4C3(C)C)=C2[O-])sc2ccccc21
emission maximum (in CO): 653 nm | emission maximum (in ClC(Cl)Cl): 664 nm

C[n+]1c2c(c(-c3ccccc3)c3c1CCCC3)CCCC2
emission maximum (in CCO): 420 nm

CCCCC(CC)Cn1c2cc(C#N)ccc2c2ccc(C#Cc3ccc4ccc5ccc(C#Cc6ccc7c8ccc(C#N)cc8n(CC(CC)CCCC)c7c6)c6ccc3c4c56)cc21 (configuration not stated)
emission maximum (in ClCCl): 458 nm

COc1ccc(-c2ccc3c(c2)nnn3C[C@H](N)C(=O)O)cc1
emission maximum (in CO): 418 nm

CCCCCc1c(C(=O)c2ccc3c4c(cccc24)-c2cccc4c2C3CC=C4)c2ccc3cccc4c5cccc6ccc1c(c65)c2c34 (configuration not stated)
emission maximum (in ClCCl): 525 nm

c1csc(-c2c3ccc(=[N+]4CCCCC4)cc-3oc3cc(N4CCCCC4)ccc23)c1
emission maximum (in CCO): 606 nm | emission maximum (in ClCCl): 603 nm

Clc1ccc(-c2nc(-c3ccccc3)c(N(c3ccccc3)c3ccccc3)s2)cc1
emission maximum (in ClC(Cl)Cl): 474 nm

N#Cc1nn(-c2ccccc2Cl)nc1N1CCCC1
emission maximum (in CC#N): 426 nm

CC[N+]1(CC)CN2C(=N1)C(C(=O)O)=Cc1cc(OC)c(OC)cc12
emission maximum (in O): 472 nm

CCOC(=O)c1c2c3c(cccc3c3cc4ccccc4cc13)N(C)C2=O
emission maximum (in CC#N): 413 nm
